Like-named read-outs stand apart in the source and are kept apart here.
What was measured:
HepG2 = assay: cells; format: cell-based, human; conditions: for IC50 / viability at 10 µM: Homo sapiens; for IC50: read-out: IC50 HepG2; for viability at 10 µM: vs vehicle-treated controls, read-out: Percentage viability HepG2; for SR(HepG2/THLE2) safety ratio: percentage viability at 10 μM normalized with THLE2
Experimental: (§1) Cells were plated at 5000-7000 cells/per well and incubated for 24 h before treatment. […] Cell Titer-Glo (Promega, Madison, Wis.) assay was performed according to manufacturer's instruction with luminescence detected on SpectraMax M5 (Molecular Devices, Sunnyvale, Calif.). Data was expressed as percentage of viability vs. vehicle-treated controls.
(§2) The anti-cancer potential of these compounds against HCC were tested using a phenotypic assay where compounds were screened over 100-fold concentration range (0.1 to 10 μM) using two representative liver cancer cell lines, HepG2 and HuH7. Additionally, THLE2 was employed as normal hepatocyte cell line to differentiate anti-cancer potential from non-specific cytotoxicities.
(§3) Cell viability assay shown in FIG. 2 was analyzed by Prism5 for the determination of respective IC50 values.
(§4) Cell viability was determined as described previous in Table 7. Percentage viability at 10 μM treatments was determined and safety ratios were calculated by normalizing survival in HCC cell lines to THLE2.

HuH7 = assay: cells; format: cell-based, human; conditions: for IC50 / viability at 10 µM: Homo sapiens; for IC50: read-out: IC50 HuH7; for viability at 10 µM: vs vehicle-treated controls, read-out: Percentage viability HuH7; for SR(HuH7/THLE2) safety ratio: percentage viability at 10 μM normalized with THLE2
Experimental: as §1, §2, §3, §4

CYP1A1 = assay: 7-ethoxyresorufin O-deethylase (EROD) assay, CYP1A1 induction in Hepa1c1c7 cells; format: cell-based, murine
Experimental: Hepa1c1c7 cells were plated at a density of 10000 cells per well in a 96-well plate and cultured for 24 h. A stock solution of test compound was prepared in DMSO and serially diluted with medium to give the desired concentration in the well. The final concentration of DMSO was 0.5% v/v. The cells were incubated with test compound for 48 h, after which the medium was removed, the well washed with 200 μl of 1×phosphate-buffered saline solution (PBS) and then incubated with 5 μM 7-ethoxyresorufin and 2 mM salicylamide in 200 μl of medium at 37° C., 40 min. Readings were taken at λexcitation of 530 nm and λemission of 590 nm on a fluorometer. Fluorescence (if any) of the test compound was determined at the same wavelengths to take into account its contribution to the observed readings. Readings of empty wells (no cells, “blank”) and wells with Hepa1c1c7 cells in medium containing 0.5% DMSO but without test compound (“control”) were also determined. TCDD, a strong inducer of CYP1A1 activity, as well as BNF and sulforaphane were used as controls.
CYP1A1 induction activity was given by the expression:
Degree of induction=FCells+test compound−FBlank/FControl−FBlank
The EROD assay was used for this purpose (Burke, M. D.; Mayer, R. T., Drug Metab Dispos 1974, 2, 583). EROD activity describes the rate at which CYP1A1 caused the O-deethylation of 7-ethoxyresorufin to resorufm. […] This ratio was determined for compounds at concentrations that were approximately 4 times their CD values. A fixed concentration was not used here because it would be difficult to select this concentration in view of the large variation in NQO1 induction activities. The quotient of NQO1 and CYP1A1 induction ratios (ratio determined at the same concentration) was also obtained for each compound. Values >1 would imply greater induction of NQO1 relative to CYP1A1.

NQO1 = assay: Induction of NQO1 (QR) activity in Hepa1c1c7 cells
Hepa1c1c7 cells = assay: MTT growth inhibition / cytotoxicity on Hepa1c1c7 cells; format: cell-based, murine; conditions: Mus musculus, Hepa-1c1c7, 48 h, highest concentration tested 25 μM
Experimental: The antiproliferative activity of the compounds according to the invention was determined by the MTT assay on the following cell lines: MCF7 (human breast cancer cell line), HCT116 (human colon cancer cell line), and CCL186 (normal human diploid embryonic lung fibroblast). […] MCF7 and CCL186 cells were cultured in Eagle's Minimum Essential Medium (EMEM) with 1 mM sodium pyruvate, 1.5 g/L sodium bicarbonate, 2 mM L-glutamine supplemented with 10% FBS and 0.01% antibiotics. HCT116 cells were cultured in McCoy's 5A Medium with 2.2 g/L sodium bicarbonate supplemented with […] and 0.01% antibiotics. Cells were plated at the following densities: 10000 cells/well (MCF7), 4000 cells/well (HCT116), 5000 cells/well (CCL186). They were grown for 24 h in a 96-well plate, with 100 μl of corresponding medium in each well. The test compounds were prepared in DMSO and diluted to a series of concentrations with medium. Not more than 1% DMSO (final concentration) was present in each well. The test compounds were incubated with the cells for 72 h, after which 100 μl MTT solution (0.5 mg/ml in 1× PBS) was added for 3 h and the cells lysed to release the formazan product. The latter was dissolved in DMSO (150 μl) and absorbance determined within 30 min at 590 nm on a microtitre plate reader. Cell survival was given by the expression:
Cell survival (%)=[(Acells+test compound−Ablank)/(Auntreated cells−Ablank)]×100
where A is the absorbance of formazan measured at 590 nm in the test (Acells+test compound), control (Auntreated cells) or blank (Ablank) wells. Each concentration of test compound was evaluated on 3 separate occasions. […] The MTT assay was also carried out on Hepa1c1c7 cells for the purpose of determining cytotoxicity of test compounds. The same procedure was adopted except that the incubation period of compound with cells was 48 h, instead of 72 h.

THLE2 = assay: Cell viability assay (Cell Titer-Glo), THLE2 normal hepatocyte cell line; format: cell-based; conditions: Homo sapiens, read-out: IC50 THLE2
Experimental: as §1, §2, §3

[1] = 1 μM, read off from plot of degree of induction versus concentration

COc1cccc(/C=C2/C(=O)Nc3cc(F)ccc32)c1 [Compound 39, (E)-6-Fluoro-3-(3-methoxybenzylidene)indolin-2-one]
melting point: 169 to 170 °C
IC50 (HepG2; HepG2, 72 h): 7.6 µM
viability at 10 µM (HepG2; HepG2, 72 h): 40 ± 4.2%
SR(HepG2/THLE2) safety ratio (HepG2): 1.95
IC50 (HuH7; Huh-7, 72 h): > 10 µM
viability at 10 µM (HuH7; Huh-7, 72 h): 65.8 ± 1.1%
SR(HuH7/THLE2) safety ratio (HuH7): 1.19
CYP1A1 induction ratio (CYP1A1; 1 μM, 48 h): 1.25 ± 0.06
NQO1 induction ratio (NQO1; [1]): 3.21
NQO1/CYP1A1 Quotient (NQO1; both ratios at 1 μM): 2.57
IC50 (Hepa1c1c7 cells): 9.8 µM
IC50 (THLE2; THLE-2, 72 h): > 10 µM

COc1ccc(/C=C2/C(=O)Nc3cc(Cl)ccc32)cc1O [Compound 44, (E)-6-Chloro-3-(3-hydroxy-4-methoxybenzylidene)indolin-2-one]
melting point: 220 to 223 °C
IC50 (HepG2; HepG2, 72 h): 1 µM
viability at 10 µM (HepG2; HepG2, 72 h): 15 ± 1.3%
SR(HepG2/THLE2) safety ratio (HepG2): 5.72
IC50 (HuH7; Huh-7, 72 h): > 10 µM
viability at 10 µM (HuH7; Huh-7, 72 h): 63 ± 4%
SR(HuH7/THLE2) safety ratio (HuH7): 1.36
CYP1A1 induction ratio (CYP1A1; 1 μM, 48 h): 2.33 ± 0.13
NQO1 induction ratio (NQO1; [1]): 5.09
NQO1/CYP1A1 Quotient (NQO1; both ratios at 1 μM): 2.18
IC50 (Hepa1c1c7 cells): > 25 µM
IC50 (THLE2; THLE-2, 72 h): > 10 µM

Clc1cc2c(cc1Cl)Oc1cc(Cl)c(Cl)cc1O2 [TCDD, 2,3,7,8-Tetrachlorodibenzo-p-dioxin, reference compound]
CYP1A1 induction ratio (EROD assay) (CYP1A1; 1 nM): 2.99

COc1cccc(/C=C2/C(=O)Nc3ccc(Cl)cc32)c1 [Compound 40, (E)-5-Chloro-3-(3-methoxybenzylidene)indolin-2-one]
melting point: 212 to 214 °C
IC50 (HepG2; HepG2, 72 h): 9.2 µM
viability at 10 µM (HepG2; HepG2, 72 h): 46.1 ± 2.2%
SR(HepG2/THLE2) safety ratio (HepG2): 1.93
IC50 (HuH7; Huh-7, 72 h): > 10 µM
viability at 10 µM (HuH7; Huh-7, 72 h): 57.5 ± 6.6%
SR(HuH7/THLE2) safety ratio (HuH7): 1.55
CYP1A1 induction ratio (CYP1A1; 2.5 μM, 48 h): 1.32 ± 0.08
NQO1 induction ratio (NQO1; 2.5 μM, read off from plot): 4.34
NQO1/CYP1A1 Quotient (NQO1; both ratios at 2.5 μM): 3.29
IC50 (Hepa1c1c7 cells): 17.5 µM
IC50 (THLE2; THLE-2, 72 h): > 10 µM

COc1cccc(/C=C2/C(=O)Nc3cc(Cl)ccc32)c1 [Compound 41, (E)-6-Chloro-3-(3-methoxybenzylidene)indolin-2-one]
melting point: 198 to 200 °C
IC50 (HepG2; HepG2, 72 h): 8.5 µM
viability at 10 µM (HepG2; HepG2, 72 h): 46.4 ± 2.5%
SR(HepG2/THLE2) safety ratio (HepG2): 1.90
IC50 (HuH7; Huh-7, 72 h): > 10 µM
viability at 10 µM (HuH7; Huh-7, 72 h): 102 ± 6.9%
SR(HuH7/THLE2) safety ratio (HuH7): 0.87
CYP1A1 induction ratio (CYP1A1; 0.1 μM, 48 h): 1.51 ± 0.13
NQO1 induction ratio (NQO1; 0.1 μM, read off from plot): 2.56
NQO1/CYP1A1 Quotient (NQO1; both ratios at 0.1 μM): 1.70
IC50 (Hepa1c1c7 cells): > 25 µM
IC50 (THLE2; THLE-2, 72 h): > 10 µM

C[S+]([O-])CCCCN=C=S (centres unmarked) [sulforaphane, reference compound]
CYP1A1 induction ratio (CYP1A1; 1 μM, 48 h): 0.924
NQO1 induction ratio (NQO1; [1]): 3.89

CCN(CC)CCNC(=O)c1c(C)[nH]c(/C=C2\C(=O)Nc3ccc(F)cc32)c1C [Sunitinib, reference compound]
viability at 10 µM (HepG2; HepG2, 72 h): 1.8 ± 0.3%
IC50 (HepG2; HepG2, viability (intracellular ATP, Cell Titer-Glo), 72 h, 0.1 to 10 μM): 4.5 µM
viability at 10 µM (HuH7; Huh-7, 72 h): 3.4 ± 0.2%
IC50 (HuH7; Huh-7, viability (intracellular ATP, Cell Titer-Glo), 72 h, 0.1 to 10 μM): 4.7 µM
IC50 (THLE2; THLE-2, viability (intracellular ATP, Cell Titer-Glo), 72 h, 0.1 to 10 μM, normal liver cell line): 4.5 µM

COc1ccc(/C=C2/C(=O)Nc3cc(F)ccc32)cc1O [Compound 43, (E)-6-Fluoro-3-(3-hydroxy-4-methoxybenzylidene)indolin-2-one]
melting point: 225 to 227 °C
IC50 (HepG2; HepG2, 72 h): 1.2 µM
viability at 10 µM (HepG2; HepG2, 72 h): 28.3 ± 6.7%
SR(HepG2/THLE2) safety ratio (HepG2): 3.63
IC50 (HuH7; Huh-7, 72 h): > 10 µM
viability at 10 µM (HuH7; Huh-7, 72 h): 84.1 ± 7.5%
SR(HuH7/THLE2) safety ratio (HuH7): 1.22
CYP1A1 induction ratio (CYP1A1; 0.5 μM, 48 h): 2.05 ± 0.07
NQO1 induction ratio (NQO1; 0.5 μM, read off from plot): 4.10
NQO1/CYP1A1 Quotient (NQO1; both ratios at 0.5 μM): 2.00
IC50 (Hepa1c1c7 cells): 15.6 µM
IC50 (THLE2; THLE-2, 72 h): > 10 µM

O=c1cc(-c2ccccc2)oc2ccc3ccccc3c12 [BNF, β-naphthoflavone, reference compound]
CYP1A1 induction ratio (CYP1A1; 0.01 μM, read off from a curve): 1.13
NQO1 induction ratio (NQO1; 0.01 μM): 1.83
NQO1/CYP1A1 Quotient (NQO1; both ratios at 0.01 μM): 1.62
